Assay results taken from patent US11691949B2, “Quinoline sulfonamide compounds and their use as antibacterial agents” (OTAGO INNOVATION LIMITED, priority 2017, dated 2023).
Values after ≈ are worked out from the molar mass of the structure shown. Where two headings read alike, the source gives them in different places.

What was measured:
Format in all cases: cell-based
S. uberis ATCC 19436 [1] = test: MIC by broth microdilution, S. uberis; conditions: Streptococcus uberis
Summary of the method: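 This broth microdilution assay used S. uberis ATCC 19436 in Todd Hewitt Broth, with zinc sulphate heptahydrate added where required to a final 50 μM. Inhibitor concentration ranges came from two-fold serial dilutions in 96-well flat bottom plates at 200 μl. Approximately 5×10^5 cfu/mL cells were incubated for 24 h at 37° C. and 200 rpm. Wells were then read at OD600 on a Varioskan Flash reader.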

S. aureus ATCC 6538 [2] = test: MIC by broth microdilution, S. aureus; conditions: Staphylococcus aureus
Summary of the method: (§1)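 Media: TSB or CAMHB for S. aureus, LB or CAMHB for E. coli, with zinc sulphate to 50 μM final where required. Cells at ~5×10^5 cfu/mL met two-fold compound series; growth was scored by OD600 after 24 h shaking at 37° C.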

E. coli ATCC 10596 = test: MIC by broth microdilution, E. coli; conditions: Escherichia coli
Summary of the method: as §1

S. uberis ATCC 19436 [3] = test: MBC by Miles-Misra drop-plate method, S. uberis; conditions: Streptococcus uberis
Method: (§2) Antibacterial susceptibility testing was performed in triplicate (biological) by measuring minimum inhibitory concentrations (MICs) by broth microdilution in 96-well flat bottom microtiter plates (ThermoFisher Scientific, New Zealand). S. uberis ATCC 19436, S. aureus ATCC 6538, or E. coli ATCC 10596 cells grown overnight were diluted to an OD600 of approximately 0.025, so that the final concentration of cells in the MIC assay was approximately 5×10^5 cfu/mL in media as follows: S. uberis; Todd Hewitt Broth (THB), S. aureus; Tryptic Soy Broth (TSB) and Cation Adjusted Muller Hinton Broth (CAMHB), and E. coli; Lysogeny Borth (LB) and CAMHB, before being dispensed into microtiter wells. As required additional sterile Zinc Sulphate (Heptahydrate) was supplemented into the media, so the final concentration was 50 μM. Test compounds were added to starting wells and two-fold serial dilutions were undertaken to generate a range of inhibitor concentrations at a final volume of 200 μl. Media and test compound-free (untreated) controls were included in each microtiter plate in triplicate. After 24 h incubation at 37° C. and 200 rpm, the OD600 of wells were read using a Varioskan Flash plate reader (ThermoFisher Scientific, New Zealand). The MIC was reported as the lowest concentration of the test compound for which no growth occurred, as determined by OD600 readings. The minimum bactericidal concentration (MBC) was determined using the Miles-Misra drop-plate method to measure the viability of cells in response to test compound challenge.

S. aureus ATCC 6538 [4] = test: MBC by Miles-Misra drop-plate method, S. aureus; conditions: Staphylococcus aureus
Method: as §2

E. coli ATCC 10536 = test: MBC by Miles-Misra drop-plate method, E. coli; conditions: Escherichia coli
Method: as §2

[5] = ATCC19436, No Zinc, read-out: S. uberis ATCC 19436 MIC
[6] = ATCC19436, Zinc (50 μM), read-out: S. uberis ATCC 19436 MIC
[7] = ATCC6538, No Zinc, read-out: S. aureus ATCC 6538 MIC
[8] = ATCC6538, Zinc (50 μM), read-out: S. aureus ATCC 6538 MIC
[9] = ATCC 10536 / ATCC 10596, No Zinc, read-out: E. coli ATCC 10536 MIC
[10] = ATCC 10536 / ATCC 10596, Zinc (50 μM), read-out: E. coli ATCC 10536 MIC
[11] = ATCC19436, No Zinc, read-out: S. uberis ATCC 19436 MBC
[12] = ATCC19436, Zinc (50 μM), read-out: S. uberis ATCC 19436 MBC
[13] = ATCC6538, No Zinc, read-out: S. aureus ATCC 6538 MBC
[14] = ATCC6538, Zinc (50 μM), read-out: S. aureus ATCC 6538 MBC
[15] = ATCC10536, No Zinc, read-out: E. coli ATCC 10536 MBC
[16] = ATCC10536, Zinc (50 μM), read-out: E. coli ATCC 10536 MBC
[17] = ATCC19436, read-out: S. uberis ATCC 19436 MIC, No Zinc
[18] = ATCC19436, read-out: S. uberis ATCC 19436 MIC, Zinc (50 μM)
[19] = ATCC6538, read-out: S. aureus ATCC 6538 MIC, No Zinc
[20] = ATCC6538, read-out: S. aureus ATCC 6538 MIC, Zinc (50 μM)
[21] = ATCC 10536 / ATCC 10596, read-out: E. coli ATCC 10536 MIC, No Zinc
[22] = ATCC 10536 / ATCC 10596, read-out: E. coli ATCC 10536 MIC, Zinc (50 μM)
[23] = ATCC19436, read-out: S. uberis ATCC 19436 MBC, No Zinc
[24] = ATCC19436, read-out: S. uberis ATCC 19436 MBC, Zinc (50 μM)
[25] = ATCC6538, read-out: S. aureus ATCC 6538 MBC, No Zinc
[26] = ATCC6538, read-out: S. aureus ATCC 6538 MBC, Zinc (50 μM)
[27] = ATCC10536, read-out: E. coli ATCC 10536 MBC, No Zinc
[28] = ATCC10536, read-out: E. coli ATCC 10536 MBC, Zinc (50 μM)

| MIC (S. uberis ATCC 19436 [1]; [5]) | MIC (S. uberis ATCC 19436 [1]; [6]) | MIC (S. aureus ATCC 6538 [2]; [7]) | MIC (S. aureus ATCC 6538 [2]; [8]) | MIC (E. coli ATCC 10596; [9]) | MIC (E. coli ATCC 10596; [10]) | SMILES | MBC (S. uberis ATCC 19436 [3]; [11]) | MBC (S. uberis ATCC 19436 [3]; [12]) | MBC (S. aureus ATCC 6538 [4]; [13]) | MBC (S. aureus ATCC 6538 [4]; [14]) | MBC (E. coli ATCC 10536; [15]) | MBC (E. coli ATCC 10536; [16]) | MIC (S. uberis ATCC 19436 [1]; [17]) | MIC (S. uberis ATCC 19436 [1]; [18]) | MIC (S. aureus ATCC 6538 [2]; [19]) | MIC (S. aureus ATCC 6538 [2]; [20]) | MIC (E. coli ATCC 10596; [21]) | MIC (E. coli ATCC 10596; [22]) | MBC (S. uberis ATCC 19436 [3]; [23]) | MBC (S. uberis ATCC 19436 [3]; [24]) | further results |
| --- | --- | --- | --- | --- | --- | --- | --- | --- | --- | --- | --- | --- | --- | --- | --- | --- | --- | --- | --- | --- | --- |
| > 256 µg/mL | 0.125 µg/mL (≈ 0.257 µM) | 64 µg/mL (≈ 132 µM) | 8 µg/mL (≈ 16.4 µM) | 128 µg/mL (≈ 263 µM) | > 256 µg/mL | O=S(=O)(Nc1cccc2ccc(CNCCc3ccccn3)nc12)c1ccc(C(F)(F)F)cc1 [ZDR095, N-(2-(((2-(Pyridin-2-yl)ethyl)amino)methyl)quinolin-8-yl)-4-(trifluoromethyl)benzenesulfonamide] | > 256 µg/mL | 1 µg/mL (≈ 2.06 µM) | > 128 µg/mL | > 256 µg/mL | 128 µg/mL (≈ 263 µM) | 256 µg/mL (≈ 526 µM) | – | – | – | – | – | – | – | – | – |
| 8 µg/mL (≈ 16.2 µM) | 0.5 µg/mL (≈ 1.02 µM) | 16 µg/mL (≈ 32.5 µM) | 16 µg/mL (≈ 32.5 µM) | 64 µg/mL (≈ 130 µM) | > 256 µg/mL | O=S(=O)(Nc1cccc2ccc(CNCCN3CCCCC3)nc12)c1ccc(C(F)(F)F)cc1 [ZDR111, N-(2-(((2-(Piperidin-1-yl)ethyl)amino)methyl)quinolin-8-yl)-4-(trifluoromethyl)benzenesulfonamide] | 8 µg/mL (≈ 16.2 µM) | 1 µg/mL (≈ 2.03 µM) | 16 µg/mL (≈ 32.5 µM) | 16 µg/mL (≈ 32.5 µM) | > 256 µg/mL | > 256 µg/mL | – | – | – | – | – | – | – | – | – |

The remaining lines, values behind:

| SMILES | MIC (S. uberis ATCC 19436 [1]; [5]) | MIC (S. uberis ATCC 19436 [1]; [6]) | MIC (S. aureus ATCC 6538 [2]; [7]) | MIC (S. aureus ATCC 6538 [2]; [8]) | MIC (E. coli ATCC 10596; [9]) | MIC (E. coli ATCC 10596; [10]) | MBC (S. uberis ATCC 19436 [3]; [11]) | MBC (S. uberis ATCC 19436 [3]; [12]) | MBC (S. aureus ATCC 6538 [4]; [13]) | MBC (S. aureus ATCC 6538 [4]; [14]) | MBC (E. coli ATCC 10536; [15]) | MBC (E. coli ATCC 10536; [16]) | MIC (S. uberis ATCC 19436 [1]; [17]) | MIC (S. uberis ATCC 19436 [1]; [18]) | MIC (S. aureus ATCC 6538 [2]; [19]) | MIC (S. aureus ATCC 6538 [2]; [20]) | MIC (E. coli ATCC 10596; [21]) | MIC (E. coli ATCC 10596; [22]) | MBC (S. uberis ATCC 19436 [3]; [23]) | MBC (S. uberis ATCC 19436 [3]; [24]) | further results |
| --- | --- | --- | --- | --- | --- | --- | --- | --- | --- | --- | --- | --- | --- | --- | --- | --- | --- | --- | --- | --- | --- |
| O=S(=O)(Nc1cccc2ccc(CNC(CO)(CO)CO)nc12)c1ccc(C(F)(F)F)cc1 [ZDR102, N-(2-(((1,3-Dihydroxy-2-(hydroxymethyl)propan-2-yl)amino)methyl)quinolin-8-yl)-4-(trifluoromethyl)benzenesulfonamide] | 32 µg/mL (≈ 65.9 µM) | 16 µg/mL (≈ 33 µM) | 32 µg/mL (≈ 65.9 µM) | 16 µg/mL (≈ 33 µM) | 256 µg/mL (≈ 527 µM) | 64 µg/mL (≈ 132 µM) | 32 µg/mL (≈ 65.9 µM) | 16 µg/mL (≈ 33 µM) | 128 µg/mL (≈ 264 µM) | 32 µg/mL (≈ 65.9 µM) | 256 µg/mL (≈ 527 µM) | > 256 µg/mL | – | – | – | – | – | – | – | – | – |
| O=S(=O)(Nc1cccc2ccc(CNCCN3CCOCC3)nc12)c1ccc(C(F)(F)F)cc1 [ZDR112, N-(2-(((2-Morpholinoethyl)amino)methyl)quinolin-8-yl)-4-(trifluoromethyl)benzenesulfonamide] | 64 µg/mL (≈ 129 µM) | 1 µg/mL (≈ 2.02 µM) | 16 µg/mL (≈ 32.4 µM) | 32 µg/mL (≈ 64.7 µM) | > 256 µg/mL | > 256 µg/mL | 64 µg/mL (≈ 129 µM) | 2 µg/mL (≈ 4.04 µM) | > 256 µg/mL | 256 µg/mL (≈ 518 µM) | 128 µg/mL (≈ 259 µM) | > 256 µg/mL | – | – | – | – | – | – | – | – | – |
| CN1CCN(CCNCc2ccc3cccc(NS(=O)(=O)c4ccc(C(F)(F)F)cc4)c3n2)CC1 [ZDR114, N-(2-(((2-(4-Methylpiperazin-1-yl)ethyl)amino)methyl)quinolin-8-yl)-4-(trifluoromethyl)benzenesulfonamide di-trifluoroacetate] | – | – | – | – | – | – | – | – | – | – | – | – | 32 µg/mL (≈ 63 µM) | 4 µg/mL (≈ 7.88 µM) | 64 µg/mL (≈ 126 µM) | 64 µg/mL (≈ 126 µM) | 64 µg/mL (≈ 126 µM) | 64 µg/mL (≈ 126 µM) | 32 µg/mL (≈ 63 µM) | 4 µg/mL (≈ 7.88 µM) | MBC (S. aureus ATCC 6538 [4]; [25]): 128 µg/mL (≈ 252 µM); MBC (S. aureus ATCC 6538 [4]; [26]): 64 µg/mL (≈ 126 µM); MBC (E. coli ATCC 10536; [27]): > 256 µg/mL; MBC (E. coli ATCC 10536; [28]): 64 µg/mL (≈ 126 µM) |
| O=S(=O)(Nc1cccc2ccc(CNCCCN3CCCCC3)nc12)c1ccc(C(F)(F)F)cc1 [ZDR115, N-(2-(((3-(Piperidin-1-yl)propyl)amino)methyl)quinolin-8-yl)-4-(trifluoromethyl)benzenesulfonamide di-trifluoroacetate] | – | – | – | – | – | – | – | – | – | – | – | – | 4 µg/mL (≈ 7.9 µM) | 2 µg/mL (≈ 3.95 µM) | 16 µg/mL (≈ 31.6 µM) | 16 µg/mL (≈ 31.6 µM) | 16 µg/mL (≈ 31.6 µM) | 16 µg/mL (≈ 31.6 µM) | 8 µg/mL (≈ 15.8 µM) | 4 µg/mL (≈ 7.9 µM) | MBC (S. aureus ATCC 6538 [4]; [25]): 16 µg/mL (≈ 31.6 µM); MBC (S. aureus ATCC 6538 [4]; [26]): 16 µg/mL (≈ 31.6 µM); MBC (E. coli ATCC 10536; [27]): 16 µg/mL (≈ 31.6 µM); MBC (E. coli ATCC 10536; [28]): 16 µg/mL (≈ 31.6 µM) |
